Legend:
human skin discards = assay: Sphingosine/ceramide formation from deuterated palmitic acid in ex vivo human skin model (LC/MS/MS); format: cell-based
Procedure: In this experiment, a standard topical base composition was charged with 3% by weight deuterated d31palmitic acid and a second base was charged with 3% by weight deuterated d31palmitic acid in combination with 3% by weight 12-hydroxystearic acid. Both compositions were applied to separate human skin discards. Biopsies were taken, placed on collagen and incubated at 37° C. with about 5% carbon dioxide. Samples were harvested after 5 days, extracted, and fractionated to obtain ceramide fractions. Elongation of deuterated d31Palmitic acid (dC16:0) with and without the PPAR activator 12-hydroxystearic acid was investigated in an ex vivo human skin model. The ceramide fraction obtained was hydrolyzed to release deuterated sphingosine and analyzed via liquid chromatography/tandem mass-spectrometry (LC/MS/MS). This technique was used to identify and measure “precursor-to-product” ion transitions specific to deuterated sphingosine, and therefore, to track sphingosine formation from deuterated palmitic acid applied to skin discards. Unexpectedly, the amount of resulting deuterated sphingosine increased in the presence the PPAR activator. The numbers in units (“u”) provided depict the signal abundance of the biomolecules looked and accounted for in a sample as determined by LC/MS/MS. […]

[1] = test system: neonatal keratinocyte model; assay: Elongation of deuterated d31-Palmitic acid with and without 12-hydroxystearic acid in neonatal keratinocyte model (LC/MS/MS); format: cell-based
Procedure: In this experiment the elongation of deuterated d31-Palmitic acid (dC16:0) with and without PPAR activator 12-hydroxystearic was investigated in a neonatal keratinocyte model. Keratinocytes were grown in an EpiLife™ medium (with calcium, from Thermo Fisher Scientific) in six well plate formats until confluency. Confluent keratinocytes were differentiated with CaCl2 treatment. The cells in wells deplete of PPAR activator were treated with the substrate: 1 uM of d31-Palmitic acid (dC16:0) every second or third day until harvested on day 7. The remainder of the samples were treated with 1 uM of the aforementioned dC16:0 and 12 hydroxystearic acid at the concentrations shown in the tables. Samples were extracted and analyzed via liquid chromatography/tandem mass-spectrometry (LC/MS/MS) for deuterated d31-Palmitic acid (dC16:0) elongation. Precursor-to-product ion transitions, specific to deuterated elongated fatty acids derived from d31-Palmitic acid, were identified and measured.

[2] = test system: EpiDerm in vitro 3D skin equivalents of keratinocytes; assay: Elongation of deuterated d23-Lauric acid in EpiDerm 3D skin equivalents (LC/MS/MS); format: cell-based, human; conditions: for d23 C12:0 signal: lauric acid prior to elongation
Procedure: In this experiment, EpiDerm in vitro 3D skin equivalents of keratinocytes (commercially available from Matek) were used as a model system to investigate bioconversions in human skin. The skin equivalents were topically treated with deuterated d23-Lauric acid (dC12:0) in propylene glycol:ethanol (70:30), one time per day for seven days with concentrations in the range of 400 ng/cm^2 to 5000 ng/cm^2. Samples were harvested, extracted and analyzed via liquid chromatography/tandem mass-spectrometry (LC/MS/MS) for deuterated d23-Lauric acid elongation. Precursor-to-product (i.e., elongation) ion transitions, specific to deuterated elongated fatty acids derived from d23 Lauric acid, were identified and measured. The first column depicts the signal for lauric acid provided to the EpiDerm prior to elongation.

[3] = 12HSA 3 uM with 1 uM dC16:0, harvested day 7
[4] = 12HSA 10 uM with 1 uM dC16:0, harvested day 7
[5] = 12HSA 30 uM with 1 uM dC16:0, harvested day 7
[6] = 12HSA 100 uM with 1 uM dC16:0, harvested day 7
[7] = 400 ng/cm2, once per day for seven days
[8] = 1000 ng/cm2, once per day for seven days
[9] = 5000 ng/cm2 dC12:0, once per day for seven days
[10] = 1 uM d31-Palmitic acid, No 12 HSA, harvested day 7

## CCCCCCC(O)CCCCCCCCCCC(=O)O (stereo not shown) [12HSA, 12-hydroxystearic acid]
Human skin discards; 3% 12-hydroxystearic acid with 3% d31palmitic acid vs d31palmitic acid alone
  amount of resulting deuterated sphingosine in the presence of the PPAR activator: increased
[1]; [3]
  dC16:0 signal: 486506 u
  dC18:0 signal: 710249 u
  dC20:0 signal: 11478 u
  dC22:0 signal: 94091 u
  dC24:0 signal: 294398 u
  dC26:0 signal: 60180 u
[1]; [4]
  dC16:0 signal: 503533 u
  dC18:0 signal: 713499 u
  dC20:0 signal: 13666 u
  dC22:0 signal: 98634 u
  dC24:0 signal: 306176 u
  dC26:0 signal: 62141 u
[1]; [5]
  dC16:0 signal: 921997 u
  dC18:0 signal: 792317 u
  dC20:0 signal: 18245 u
  dC22:0 signal: 131062 u
  dC24:0 signal: 470314 u
  dC26:0 signal: 109818 u
[1]; [6]
  dC16:0 signal: 677241 u
  dC18:0 signal: 750585 u
  dC20:0 signal: 75060 u
  dC22:0 signal: 201806 u
  dC24:0 signal: 774622 u
  dC26:0 signal: 219006 u
[1]; compared to samples deplete of the activator
  effect on formation of elongated fatty acids from d31-Palmitic acid: boosts and enhances the formation of elongated fatty acids from d31C16:0 to d31C26:0

## [2H]C([2H])([2H])C([2H])([2H])C([2H])([2H])C([2H])([2H])C([2H])([2H])C([2H])([2H])C([2H])([2H])C([2H])([2H])C([2H])([2H])C([2H])([2H])C([2H])([2H])C(=O)O [dC12:0, d23-Lauric acid]
[2]; [7]
  d23 C14:0 signal: 4670 u
  d23 C16:0 signal: 46204 u
  d23 C18:0 signal: 140851 u
  d23 C20 signal: 20848 u
  d23 C22:0 signal: 45885 u
  d23 C24:0 signal: 68863 u
  d23 C12:0 signal: 24559 u
[2]; [8]
  d23 C14:0 signal: 7481 u
  d23 C16:0 signal: 338885 u
  d23 C18:0 signal: 467624 u
  d23 C20 signal: 54050 u
  d23 C22:0 signal: 128640 u
  d23 C24:0 signal: 187974 u
  d23 C12:0 signal: 51904 u
[2]; [9]
  d23 C14:0 signal: 53655 u
  d23 C16:0 signal: 1026969 u
  d23 C18:0 signal: 1355969 u
  d23 C20 signal: 227595 u
  d23 C22:0 signal: 513274 u
  d23 C24:0 signal: 758093 u
  d23 C12:0 signal: 528578 u
[2]; enzymes present in the skin equivalents
  bioconversion/elongation of dC12:0 in skin equivalents: convert to dC16:0 via fatty acid synthase enzyme, followed by further elongation of dC16:0 to deuterated Lignoceric acid C24:0

## [2H]C([2H])([2H])C([2H])([2H])C([2H])([2H])C([2H])([2H])C([2H])([2H])C([2H])([2H])C([2H])([2H])C([2H])([2H])C([2H])([2H])C([2H])([2H])C([2H])([2H])C([2H])([2H])C([2H])([2H])C([2H])([2H])C([2H])([2H])C(=O)O [deuterated palmitic acid, d31-Palmitic acid]
Human skin discards; hydrolyzed ceramide fraction, composition with 3% by weight of each ingredient applied to human skin discards, harvested after 5 days, 37° C.
  Deuterated Sphingosine signal abundance: 36,958 u
[1]; [10]
  dC16:0 signal: 646987 u
  dC18:0 signal: 663577 u
  dC20:0 signal: 11233 u
  dC22:0 signal: 90496 u
  dC24:0 signal: 278426 u
  dC26:0 signal: 60009 u
